Source: patent publication US20230218519A1, “FLUID GEL COMPOSITIONS” (The University of Birmingham, priority 2020, published 2023)
Read-outs that look alike come from different tables or passages of the source.

Legend:
[1] = Release assay from PEG-DA fluid gel (trans-well, UV/Vis); assay type: physicochemical; details: 3% v/v PEG-DA fluid gel (Example 5.3, 500 rpm), into PBS at 37° C., 5 hrs
Description: • Active amounts: […] • Standard concentrations of active in PBS were prepared. • Standards were pipetted into a quartz cuvette (1 mm pathlength). • UV/Vis spectroscopy was used to measure absorbance between 200 and 700 nm wavelength. • Curves were plotted and used to determine standard curves which were used to determine concentrations. • 0.5 ml PBS was added to the well of a 24 well plate. • The PBS was incubated at 37° C. to equilibrate. • 0.1 ml of the fluid gel containing active was placed in a trans-well insert. • The trans-well insert was placed into a well containing PBS. • After a given time period the trans-well insert was removed and placed in a fresh well of PBS. • The release media was then removed and analysed using […] spectroscopy. Concentrations were derived from the standard curves and cumulative release plotted as a function of time.

[2] = system: primary ovine chondrocytes; assay: Metabolic activity assay (PrestoBlue); assay type: cell-based
Description: All cell work was undertaken on primary ovine chondrocytes. Cells were first expanded, then seeded into wells 24 hrs prior to the application of the fluid gels. Once treatments were added, the cells were cultured for a further 3 days before testing for both metabolic activity and cell viability. In the presence of functionalised particles, suspension wells were used to promote adhesion to the gelled particles, away from the plastic. Metabolic activity assay was undertaken using a PrestoBlue™ assay kit (Invitrogen). In brief, cells were washed with Dulbecco's PBS, and 1 mL of PrestoBlue™ supplemented medium (10%) was added to each well and incubated for 4 hrs. 50 μL of supernatant from each well was transferred to one well of a 96 well plate and fluorescence was measured using a Tecan Spark (Tecan Group Ltd, UK) plate reader with excitation/emission wavelengths set at 550/620 nm.

Compound	release of active agent from fluid gel [1]	also measured
CC(C)Cc1ccc(C(C)C(=O)O)cc1 (stereo not shown) [Ibuprofen, ibuprofen]	able to release	–
CC(C)(O)C(=O)c1ccccc1 [Omnirad-1173, 2-hydroxy-2-methyl-1-phenylpropanone]	–	metabolic activity, each constituent part of the PEG-DA formulation ([2]; 3 days culture, PEG-DA not cured, 3.5% & 5%): slight reduction in cell metabolism, although not statistical
dextran	able to release	–
CC(C)(O)C(=O)c1ccc(OCCO)cc1 [Irgacure-2959, 1-[4-(2-Hydroxyethoxy)-phenyl]-2-hydroxy-2-methyl-1-propane-1-one]	–	metabolic activity, each constituent part of the PEG-DA formulation [2]: slight reduction in cell metabolism, although not statistical
